Where a name gives a salt, the structure may show the parent alone.
Experiments:
[1] = target: T1, phosphorylated EGFR (pEGFR) (Homo sapiens, UniProt P00533); assay: Detection of phosphorylated EGFR (pEGFR) in EGF-stimulated A431 cells; assay type: cell-based; conditions: A431 cells (10% FBS), 4 hours incubation, EGF 30 ng/mL 10 minutes, AlphaLISA
T1 construct: performed to measure phosphorylated EGFR levels using A431 cells (10% FBS); endogenous in cells; host or cells: A431
Method in brief: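 AlphaLISA read-out of EGFR phosphorylation after a 10-min EGF pulse (30 ng/mL final). A431 cells (10% FBS) had been exposed to compound for 4 h at 37 °C. IC50 was fitted from % inhibition normalised to DMSO and staurosporine control lysates.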

[2] = target: T2, phosphorylated ERBB2 (pERBB2) (Homo sapiens, UniProt P04626); assay: Detection of phosphorylated ERBB2 (pERBB2) by ELISA in BT-474 cells; assay type: cell-based; conditions: four hours incubation
T2 construct: endogenous in cells; host or cells: BT-474
T2 sequence (P04626 23-1255): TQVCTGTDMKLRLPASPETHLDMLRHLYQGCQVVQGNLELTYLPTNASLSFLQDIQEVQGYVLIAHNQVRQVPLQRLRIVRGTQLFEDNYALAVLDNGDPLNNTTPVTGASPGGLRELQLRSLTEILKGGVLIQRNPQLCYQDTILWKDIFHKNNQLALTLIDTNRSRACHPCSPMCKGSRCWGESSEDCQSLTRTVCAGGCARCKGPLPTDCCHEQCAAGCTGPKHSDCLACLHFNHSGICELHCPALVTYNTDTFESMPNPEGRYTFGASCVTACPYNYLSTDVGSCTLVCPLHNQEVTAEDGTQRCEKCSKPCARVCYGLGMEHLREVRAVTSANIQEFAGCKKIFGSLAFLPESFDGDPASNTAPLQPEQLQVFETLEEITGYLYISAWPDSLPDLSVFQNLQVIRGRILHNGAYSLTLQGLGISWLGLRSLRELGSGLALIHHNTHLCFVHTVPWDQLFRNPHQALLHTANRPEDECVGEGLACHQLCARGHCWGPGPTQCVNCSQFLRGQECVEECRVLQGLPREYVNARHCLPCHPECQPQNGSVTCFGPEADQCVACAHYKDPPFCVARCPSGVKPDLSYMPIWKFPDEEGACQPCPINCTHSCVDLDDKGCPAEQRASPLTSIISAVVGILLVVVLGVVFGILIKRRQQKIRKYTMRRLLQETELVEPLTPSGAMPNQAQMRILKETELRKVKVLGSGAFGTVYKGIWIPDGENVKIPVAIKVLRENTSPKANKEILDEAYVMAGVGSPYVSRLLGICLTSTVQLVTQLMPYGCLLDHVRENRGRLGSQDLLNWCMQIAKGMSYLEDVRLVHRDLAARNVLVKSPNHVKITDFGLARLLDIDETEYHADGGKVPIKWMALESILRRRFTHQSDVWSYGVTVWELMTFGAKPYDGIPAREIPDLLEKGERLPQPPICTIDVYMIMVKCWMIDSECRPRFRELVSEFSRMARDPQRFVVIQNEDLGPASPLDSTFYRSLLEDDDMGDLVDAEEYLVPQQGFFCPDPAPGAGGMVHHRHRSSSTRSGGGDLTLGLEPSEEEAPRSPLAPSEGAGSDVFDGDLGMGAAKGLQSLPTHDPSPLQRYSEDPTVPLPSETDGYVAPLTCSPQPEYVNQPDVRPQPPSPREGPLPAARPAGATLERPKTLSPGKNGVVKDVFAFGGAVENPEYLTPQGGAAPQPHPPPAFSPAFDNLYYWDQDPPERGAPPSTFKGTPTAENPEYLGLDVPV
Method in brief: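 Phospho-ERBB2 in lysates was quantified by sandwich ELISA (A450, TMB) after 4 h compound exposure at 37 °C of BT-474 cells seeded at 2.0×10^4 per well. Compounds tested at 10 µM to 0.01 nM final in four-fold steps; activity normalized to DMSO (0.1%) high and cell-free low controls.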

[3] = target: Ba/F3 ERBB2 A775_G776insYVMA (Homo sapiens, UniProt P04626, DUP772-775, cells depend on it); assay: Cell viability assay, Ba/F3 ERBB2 A775_G776insYVMA; assay type: cell-based, mouse; conditions: Ba/F3 ERBB2 YVMA cells, cell viability, 72 hours, CellTiter Glo; Table B5; read-out: Ba/F3 ERBB2 YVMA, IC50
Ba/F3 ERBB2 A775_G776insYVMA, sequence (P04626 with tags, fused parts or gaps DUP772-775): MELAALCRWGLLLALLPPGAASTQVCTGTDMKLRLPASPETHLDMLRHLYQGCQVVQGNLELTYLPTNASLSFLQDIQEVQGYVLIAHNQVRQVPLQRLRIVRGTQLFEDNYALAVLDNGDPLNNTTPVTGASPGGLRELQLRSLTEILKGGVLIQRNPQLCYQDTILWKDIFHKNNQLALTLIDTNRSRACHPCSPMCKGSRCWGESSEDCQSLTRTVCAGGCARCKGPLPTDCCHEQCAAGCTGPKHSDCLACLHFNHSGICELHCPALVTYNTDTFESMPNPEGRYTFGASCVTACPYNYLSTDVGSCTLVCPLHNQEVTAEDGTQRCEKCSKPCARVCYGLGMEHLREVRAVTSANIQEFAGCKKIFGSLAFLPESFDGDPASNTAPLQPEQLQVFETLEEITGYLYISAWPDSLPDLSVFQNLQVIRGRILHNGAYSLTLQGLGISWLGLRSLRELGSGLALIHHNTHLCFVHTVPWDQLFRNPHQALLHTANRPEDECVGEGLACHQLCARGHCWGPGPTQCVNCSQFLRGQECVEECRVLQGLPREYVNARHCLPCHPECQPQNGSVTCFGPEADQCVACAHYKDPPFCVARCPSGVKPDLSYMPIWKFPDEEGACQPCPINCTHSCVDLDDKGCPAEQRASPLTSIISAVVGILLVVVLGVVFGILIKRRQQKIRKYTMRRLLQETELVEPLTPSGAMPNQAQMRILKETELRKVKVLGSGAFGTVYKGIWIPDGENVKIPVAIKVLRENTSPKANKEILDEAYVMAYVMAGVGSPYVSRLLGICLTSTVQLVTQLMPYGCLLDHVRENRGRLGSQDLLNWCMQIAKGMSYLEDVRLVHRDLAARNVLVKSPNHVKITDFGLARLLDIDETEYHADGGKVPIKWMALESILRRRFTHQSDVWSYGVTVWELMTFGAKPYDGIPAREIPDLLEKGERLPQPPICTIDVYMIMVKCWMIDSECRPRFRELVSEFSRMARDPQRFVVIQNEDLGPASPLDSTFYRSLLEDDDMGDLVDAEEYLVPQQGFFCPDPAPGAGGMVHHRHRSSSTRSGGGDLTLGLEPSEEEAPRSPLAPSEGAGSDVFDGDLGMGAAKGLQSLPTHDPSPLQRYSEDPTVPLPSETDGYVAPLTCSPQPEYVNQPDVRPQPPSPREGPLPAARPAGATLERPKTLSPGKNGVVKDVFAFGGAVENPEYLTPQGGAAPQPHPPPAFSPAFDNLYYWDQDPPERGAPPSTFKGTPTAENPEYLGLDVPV
Method in brief: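 Viability after 72 h compound treatment (37 °C, 5% CO2) was quantified by CellTiter-Glo luminescence of intracellular ATP, with sigmoidal dose-response fitting. Cells were retrovirally engineered Ba/F3 lines whose growth depends on the mutant human ERBB2 in place of IL-3, plated at 3000 per well.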

T1 sequence (P00533 25-1210): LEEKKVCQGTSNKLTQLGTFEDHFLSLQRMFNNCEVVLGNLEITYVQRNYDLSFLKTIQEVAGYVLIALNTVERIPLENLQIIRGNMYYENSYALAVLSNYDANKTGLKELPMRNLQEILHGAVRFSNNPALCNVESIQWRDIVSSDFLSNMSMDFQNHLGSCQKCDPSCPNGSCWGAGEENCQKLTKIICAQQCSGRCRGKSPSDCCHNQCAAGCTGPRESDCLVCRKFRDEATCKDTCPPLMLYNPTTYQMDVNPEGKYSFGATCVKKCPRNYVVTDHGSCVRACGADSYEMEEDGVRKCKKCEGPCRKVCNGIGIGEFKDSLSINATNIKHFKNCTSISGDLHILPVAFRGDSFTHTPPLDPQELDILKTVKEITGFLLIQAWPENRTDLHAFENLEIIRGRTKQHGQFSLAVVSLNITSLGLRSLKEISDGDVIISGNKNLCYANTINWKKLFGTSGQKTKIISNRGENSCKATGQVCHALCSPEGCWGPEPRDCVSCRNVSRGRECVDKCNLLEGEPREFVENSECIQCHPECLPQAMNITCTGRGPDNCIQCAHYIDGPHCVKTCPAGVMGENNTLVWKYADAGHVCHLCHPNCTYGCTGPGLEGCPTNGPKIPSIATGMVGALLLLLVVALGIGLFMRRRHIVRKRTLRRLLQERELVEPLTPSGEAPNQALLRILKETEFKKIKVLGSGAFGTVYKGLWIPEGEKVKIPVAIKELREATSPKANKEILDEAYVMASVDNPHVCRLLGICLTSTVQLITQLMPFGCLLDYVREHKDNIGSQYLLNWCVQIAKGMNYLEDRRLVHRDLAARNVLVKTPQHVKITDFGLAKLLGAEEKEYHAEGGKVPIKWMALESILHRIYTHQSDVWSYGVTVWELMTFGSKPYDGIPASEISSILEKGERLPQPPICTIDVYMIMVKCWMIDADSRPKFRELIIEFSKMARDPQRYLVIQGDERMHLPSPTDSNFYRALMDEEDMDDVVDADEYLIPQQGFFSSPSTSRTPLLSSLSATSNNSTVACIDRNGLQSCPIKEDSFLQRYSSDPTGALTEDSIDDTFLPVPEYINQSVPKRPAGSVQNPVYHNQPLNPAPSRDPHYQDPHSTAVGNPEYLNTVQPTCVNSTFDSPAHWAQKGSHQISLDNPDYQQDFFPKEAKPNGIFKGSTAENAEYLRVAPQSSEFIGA

Row | IC50 [1] [nM] | IC50 [2] [nM] | Structure (SMILES) | GI50 [3] [nM]
1 | 7490 | 18.4 | Cc1c(Oc2ccc3c(c2)ncn3C)ccc(Nc2ncnc3cnc(N4CC/C(=C\CN(C)C)C4=O)cc23)c1F [Compound 77, (3E)-3-[2-(dimethylamino)ethylidene]-1-[4-({2-fluoro-3-methyl-4-[(1-methyl-1,3-benzodiazol-5-yl)oxy]phenyl}amino)pyrido[3,4-d]pyrimidin-6-yl]pyrrolidin-2-one] | 3.61
2 | 1570 | 16.8 | Cc1c(Oc2ccn3ncnc3c2)ccc(Nc2ncnc3ccc(N4CC/C(=C\CN(C)C)C4=O)nc23)c1F [Compound 78, (3E)-3-[2-(dimethylamino)ethylidene]-1-{4-[(2-fluoro-3-methyl-4-{[1,2,4]triazolo[1,5-a]pyridin-7-yloxy}phenyl)amino]pyrido[3,2-d]pyrimidin-6-yl}pyrrolidin-2-one hydrochloride] | 9.92
3 | > 10000 | 8.77 | Cc1cc(Nc2ncnc3ccc(N4CC/C(=C\CN(C)C)C4=O)nc23)c(F)cc1Oc1ccn2ncnc2c1 [Compound 79, (3E)-3-[2-(dimethylamino)ethylidene]-1-{4-[(2-fluoro-5-methyl-4-{[1,2,4]triazolo[1,5-a]pyridin-7-yloxy}phenyl)amino]pyrido[3,2-d]pyrimidin-6-yl}pyrrolidin-2-one] | 2.92
4 | 704 | 66.1 | Cc1cc(Nc2ncnc3cnc(N4CC/C(=C\CN(C)C)C4=O)cc23)ccc1Oc1cccnc1 [Compound 80, (3E)-3-[2-(dimethylamino)ethylidene]-1-(4-{[3-methyl-4-(pyridin-3-yloxy)phenyl]amino}pyrido[3,4-d]pyrimidin-6-yl)pyrrolidin-2-one] | 35.5
5 | 1130 | 72.3 | Cc1cc(Nc2ncnc3ccc(N4CC/C(=C\CN(C)C)C4=O)nc23)ccc1Oc1ccn2c(C)cnc2c1 [Compound 81, (E)-3-(2-(dimethylamino)ethylidene)-1-(4-((3-methyl-4-((3-methylimidazo[1,2-a]pyridin-7-yl)oxy)phenyl)amino)pyrido[3,2-d]pyrimidin-6-yl)pyrrolidin-2-one] | 3.86
6 | 3990 | 54.1 | Cc1cc(Nc2ncnc3cnc(N4CC/C(=C\CN(C)C)C4=O)cc23)ccc1Oc1ccn2c(C)cnc2c1 [Compound 82, (3E)-3-[2-(dimethylamino)ethylidene]-1-(4-{[3-methyl-4-({3-methylimidazo[1,2-a]pyridin-7-yl}oxy)phenyl]amino}pyrido[3,4-d]pyrimidin-6-yl)pyrrolidin-2-one] | 6.39
7 | 6030 | 44.2 | Cc1cc(Nc2ncnc3ccc(N4CC/C(=C/CN(C)C)C4=O)nc23)ccc1Oc1ccc2c(c1)ncn2C [Compound 83, (Z)-3-(2-(dimethylamino)ethylidene)-1-(4-((3-methyl-4-((1-methyl-1H-benzo[d]imidazol-5-yl)oxy)phenyl)amino)pyrido[3,2-d]pyrimidin-6-yl)pyrrolidin-2-one] | 4.73
8 | > 10000 | 425 | C=C1CCN(c2nc3c(Nc4ccc(Oc5ccc6c(c5)ncn6C)c(C)c4)ncnc3s2)C1=O [Compound 84, 1-[7-({3-methyl-4-[(1-methyl-1,3-benzodiazol-5-yl)oxy]phenyl}amino)-[1,3]thiazolo[5,4-d]pyrimidin-2-yl]-3-methylidenepyrrolidin-2-one] | 45
9 | 8160 | 87.2 | C=C1CCN(c2ccc3ncnc(Nc4ccc(Oc5ccc6c(c5)ncn6C)c(C)c4)c3n2)C1=O [Compound 87, 1-(4-((3-methyl-4-((1-methyl-1H-benzo[d]imidazol-5-yl)oxy)phenyl)amino)pyrido[3,2-d]pyrimidin-6-yl)-3-methylenepyrrolidin-2-one; formic acid] | 23
10 | 699 | 28.9 | Cc1cc(Nc2ncnc3ccc(N4CC/C(=C\[C@@H]5CCCN5C)C4=O)nc23)ccc1Oc1ccn2ncnc2c1 [Compound 89, (S,E)-1-(4-((4-([1,2,4]triazolo[1,5-a]pyridin-7-yloxy)-3-methylphenyl)amino)pyrido[3,2-d]pyrimidin-6-yl)-3-((1-methylpyrrolidin-2-yl)methylene)pyrrolidin-2-one] | 1.87
11 | 5770 | 17.1 | Cc1cc(Nc2ncnc3ccc(N4CC/C(=C\[C@H]5CCCN5C)C4=O)nc23)ccc1Oc1ccn2ncnc2c1 [Compound 90, (R,E)-1-(4-((4-([1,2,4]triazolo[1,5-a]pyridin-7-yloxy)-3-methylphenyl)amino)pyrido[3,2-d]pyrimidin-6-yl)-3-((1-methylpyrrolidin-2-yl)methylene)pyrrolidin-2-one] | 10.8
12 | > 10000 | 18.9 | CN(C)C/C=C1\CCN(c2ccc3ncnc(Nc4ccc(Oc5ccc6c(c5)ncn6C)c(F)c4)c3n2)C1=O [Compound 91, (3E)-3-[2-(dimethylamino)ethylidene]-1-[4-({3-fluoro-4-[(1-methyl-1,3-benzodiazol-5-yl)oxy]phenyl}amino)pyrido[3,2-d]pyrimidin-6-yl]pyrrolidin-2-one] | 2.08
13 | > 10000 | 21.3 | CN(C)C/C=C1\CCN(c2ccc3ncnc(Nc4ccc(Oc5ccc6c(c5)ncn6C)cc4)c3n2)C1=O [Compound 92, (3E)-3-[2-(dimethylamino)ethylidene]-1-[4-({4-[(1-methyl-1,3-benzodiazol-5-yl)oxy]phenyl}amino)pyrido[3,2-d]pyrimidin-6-yl]pyrrolidin-2-one] | 3.12
14 | 476 | 12.2 | C=C1CCCN(c2ccc3ncnc(Nc4ccc(Oc5ccn6ncnc6c5)c(C)c4)c3n2)C1=O [Compound 95, 1-(4-((4-([1,2,4]triazolo[1,5-a]pyridin-7-yloxy)-3-methylphenyl)amino)pyrido[3,2-d]pyrimidin-6-yl)-3-methylenepiperidin-2-one] | 5.2
15 | 794 | 22.8 | C=C1CCCN(c2ccc3ncnc(Nc4ccc(Oc5ccc6c(c5)ncn6C)c(C)c4)c3n2)C1=O [Compound 96, 1-[4-({3-methyl-4-[(1-methyl-1,3-benzodiazol-5-yl)oxy]phenyl}amino)pyrido[3,2-d]pyrimidin-6-yl]-3-methylidenepiperidin-2-one] | 18.6
16 | 942 | 40.3 | CN(C)C/C=C1\CCN(c2ccc3ncnc(Nc4ccc(Oc5ccc6c(c5)ncn6C)c(Cl)c4)c3n2)C1=O [Compound 98, (E)-1-(4-((3-chloro-4-((1-methyl-1H-benzo[d]imidazol-5-yl)oxy)phenyl)amino)pyrido[3,2-d]pyrimidin-6-yl)-3-(2-(dimethylamino)ethylidene)pyrrolidin-2-one] | 1.81
17 | > 10000 | 38.8 | CN(C)C/C=C1\CCN(c2ccc3ncnc(Nc4ccc(Oc5ccc6c(c5)ncn6C)cc4F)c3n2)C1=O [Compound 99, (3E)-3-[2-(dimethylamino)ethylidene]-1-[4-({2-fluoro-4-[(1-methyl-1,3-benzodiazol-5-yl)oxy]phenyl}amino)pyrido[3,2-d]pyrimidin-6-yl]pyrrolidin-2-one] | 6.64
18 | 157 | 57.7 | CNC/C=C1\CCN(c2ccc3ncnc(Nc4ccc(Oc5ccc6c(c5)ncn6C)c(C)c4)c3n2)C1=O [Compound 100, (3E)-1-[4-({3-methyl-4-[(1-methyl-1,3-benzodiazol-5-yl)oxy]phenyl}amino)pyrido[3,2-d]pyrimidin-6-yl]-3-[2-(methylamino)ethylidene]pyrrolidin-2-one; formic acid] | 3.19
19 | 1160 | 22.3 | Cc1cc(Nc2ncnc3cnc(N4CC/C(=C\CN(C)C)C4=O)cc23)ccc1Oc1ccc2c(c1)nnn2C [Compound 101, (E)-3-(2-(dimethylamino)ethylidene)-1-(4-((3-methyl-4-((1-methyl-1H-benzo[d][1,2,3]triazol-5-yl)oxy)phenyl)amino)pyrido[3,4-d]pyrimidin-6-yl)pyrrolidin-2-one] | 4.32
20 | 3010 | 8.26 | Cc1cc(Nc2ncnc3cnc(N4CC/C(=C\CN5CCC5)C4=O)cc23)ccc1Oc1ccn2ncnc2c1 [Compound 102, (E)-1-(4-((4-([1,2,4]triazolo[1,5-a]pyridin-7-yloxy)-3-methylphenyl)amino)pyrido[3,4-d]pyrimidin-6-yl)-3-(2-(azetidin-1-yl)ethylidene)pyrrolidin-2-one] | 7.51
21 | 503 | 43.7 | [2H]C([2H])([2H])N(C/C=C1\CCN(c2ccc3ncnc(Nc4ccc(Oc5ccc6c(c5)ncn6C)c(C)c4)c3n2)C1=O)C([2H])([2H])[2H] [Compound 105, (E)-3-(2-(bis(methyl-d3)amino)ethylidene)-1-(4-((3-methyl-4-((1-methyl-1H-benzo[d]imidazol-5-yl)oxy)phenyl)amino)pyrido[3,2-d]pyrimidin-6-yl)pyrrolidin-2-one] | 2.17

Reference: patent US20240116921A1, “LACTAM (HETERO)[…] DERIVATIVES AS INHIBITORS OF ERBB2” (EnLiven Therapeutics, Inc., priority 2020, published 2024)
